Measured values reported in ChEMBL document CHEMBL1201862, “PubChem BioAssay data set” (2004).
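Results reflect a 48-hour exposure of cells in 96-well plates to compound at five concentrations. GI50 marks 50% less growth.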 Active and inactive are the calls of the source. Cut-off read from the data, not from the text of the source: active = GI50 up to about 1.1 µM and inactive = higher.

What was measured:
Experiment in all cases: NCI-60 cell line screen, 48 h
SK-OV-3 = system: SK-OV-3
RXF 393 = system: RXF 393
NCI/ADR-RES = system: NCI/ADR-RES
HT-29 = system: HT-29
SNB-75 = system: SNB-75
Hs-578T = system: Hs-578T
K562 = system: K562
TK-10 = system: TK-10
CAKI-1 = system: CAKI-1
SK-MEL-28 = system: SK-MEL-28
T47D = system: T47D
UACC-257 = system: UACC-257
BT-549 = system: BT-549
KM12 = system: KM12
SF-295 = system: SF-295
IGROV-1 = system: IGROV-1
NCI-H226 = system: NCI-H226
HL-60 = system: HL-60
CCRF-CEM = system: CCRF-CEM

Structure (SMILES): Oc1c(OCc2nnc(CCCCCCCCc3nnc(COc4ccc5ccccc5c4O)n3Nc3ccccc3)n2Nc2ccccc2)ccc2ccccc12
- GI50 (SK-OV-3): 9.77 µM (inactive)
- GI50 (RXF 393): 16.2 µM (inactive)
- GI50 (NCI/ADR-RES): 11 µM (inactive)
- GI50 (HT-29): 8.28 µM (inactive)
- GI50 (SNB-75): 17.5 µM (inactive)
- GI50 (Hs-578T): 8.17 µM (inactive)
- GI50 (K562): 0.515 µM (active)
- GI50 (TK-10): 11.1 µM (inactive)
- GI50 (CAKI-1): 0.676 µM (active)
- GI50 (SK-MEL-28): 2.07 µM (inactive)
- GI50 (T47D): 6.43 µM (inactive)
- GI50 (UACC-257): 4.21 µM (inactive)
- GI50 (BT-549): 8.73 µM (inactive)
- GI50 (KM12): 3 µM (inactive)
- GI50 (SF-295): 0.301 µM (active)
- GI50 (IGROV-1): 12 µM (inactive)
- GI50 (NCI-H226): 7.55 µM (inactive)

Structure (SMILES): CCOC(=O)/C(=C\NCC(O)c1ccccc1)c1nc2ccccc2[nH]1 (stereo not drawn)
- GI50 (HL-60): 13.6 µM (inactive)
- GI50 (SK-OV-3): 31.8 µM (inactive)
- GI50 (RXF 393): 27.4 µM (inactive)
- GI50 (NCI/ADR-RES): 20.8 µM (inactive)
- GI50 (HT-29): 21.5 µM (inactive)
- GI50 (SNB-75): 24.2 µM (inactive)
- GI50 (CCRF-CEM): 13.6 µM (inactive)
- GI50 (Hs-578T): 20.5 µM (inactive)
- GI50 (K562): 19.8 µM (inactive)
- GI50 (TK-10): 26.1 µM (inactive)
- GI50 (CAKI-1): 32.4 µM (inactive)
- GI50 (SK-MEL-28): 17.2 µM (inactive)
- GI50 (UACC-257): 19.6 µM (inactive)
- GI50 (BT-549): 29.9 µM (inactive)
- GI50 (KM12): 21.6 µM (inactive)
- GI50 (SF-295): 24.8 µM (inactive)
- GI50 (IGROV-1): 20.1 µM (inactive)

Structure (SMILES): CCC/C(Cl)=N\OC(=O)Nc1ccc(F)c([N+](=O)[O-])c1
- GI50 (SK-OV-3): 24.6 µM (inactive)
- GI50 (NCI/ADR-RES): 17.9 µM (inactive)
- GI50 (HT-29): 20.1 µM (inactive)
- GI50 (SNB-75): 17.6 µM (inactive)
- GI50 (CCRF-CEM): 3.74 µM (inactive)
- GI50 (K562): 5.32 µM (inactive)
- GI50 (TK-10): 17 µM (inactive)
- GI50 (CAKI-1): 4.3 µM (inactive)
- GI50 (SK-MEL-28): 18 µM (inactive)
- GI50 (UACC-257): 17.3 µM (inactive)
- GI50 (BT-549): 10.2 µM (inactive)
- GI50 (KM12): 16.7 µM (inactive)
- GI50 (SF-295): 33.8 µM (inactive)
- GI50 (IGROV-1): 15.3 µM (inactive)
- GI50 (NCI-H226): 24.2 µM (inactive)

Structure (SMILES): CCN(CC)C(=S)SS(=O)(=O)c1ccc(F)cc1
- GI50 (SK-OV-3): > 100 µM (inactive)
- GI50 (RXF 393): 18.8 µM (inactive)
- GI50 (NCI/ADR-RES): 50.7 µM (inactive)
- GI50 (HT-29): 22 µM (inactive)
- GI50 (Hs-578T): 63 µM (inactive)
- GI50 (K562): 23.2 µM (inactive)
- GI50 (TK-10): > 100 µM (inactive)
- GI50 (CAKI-1): 41 µM (inactive)
- GI50 (SK-MEL-28): 14 µM (inactive)
- GI50 (T47D): 85.1 µM (inactive)
- GI50 (UACC-257): 28.4 µM (inactive)
- GI50 (BT-549): 46.1 µM (inactive)
- GI50 (KM12): 17.8 µM (inactive)
- GI50 (SF-295): 75.3 µM (inactive)
- GI50 (NCI-H226): > 100 µM (inactive)

Structure (SMILES): CC1CCC/C1=C(/I)C(=O)c1ccccc1 (stereo not drawn)
- GI50 (HL-60): 39.5 µM (inactive)
- GI50 (SK-OV-3): > 100 µM (inactive)
- GI50 (RXF 393): > 100 µM (inactive)
- GI50 (NCI/ADR-RES): 76.7 µM (inactive)
- GI50 (HT-29): 48 µM (inactive)
- GI50 (SNB-75): 16.1 µM (inactive)
- GI50 (CCRF-CEM): 30.4 µM (inactive)
- GI50 (Hs-578T): > 100 µM (inactive)
- GI50 (K562): 34.4 µM (inactive)
- GI50 (TK-10): > 100 µM (inactive)
- GI50 (CAKI-1): 2.97 µM (inactive)
- GI50 (SK-MEL-28): > 100 µM (inactive)
- GI50 (T47D): > 100 µM (inactive)
- GI50 (UACC-257): 89.9 µM (inactive)
- GI50 (KM12): 25.4 µM (inactive)
- GI50 (SF-295): 27 µM (inactive)
- GI50 (IGROV-1): > 100 µM (inactive)
- GI50 (NCI-H226): 60.7 µM (inactive)

Structure (SMILES): NC(CCCCNC(=O)CNC(=O)OCc1ccccc1)C(=O)NC(CCCCNC(=O)CNC(=O)OCc1ccccc1)C(=O)NC(CCCCNC(=O)CNC(=O)OCc1ccccc1)C(=O)NC(CCCCNC(=O)CNC(=O)OCc1ccccc1)C(=O)NC(CCCCNC(=O)CNC(=O)OCc1ccccc1)C(=O)NC(CCCCNC(=O)CNC(=O)OCc1ccccc1)C(=O)O (stereo not drawn)
- GI50 (HL-60): > 75 µM (inactive)
- GI50 (HT-29): > 75 µM (inactive)
- GI50 (SNB-75): > 75 µM (inactive)
- GI50 (CCRF-CEM): > 75 µM (inactive)
- GI50 (K562): > 75 µM (inactive)
- GI50 (TK-10): > 75 µM (inactive)
- GI50 (CAKI-1): > 75 µM (inactive)
- GI50 (SK-MEL-28): > 75 µM (inactive)
- GI50 (T47D): > 75 µM (inactive)
- GI50 (UACC-257): > 75 µM (inactive)
- GI50 (BT-549): > 75 µM (inactive)
- GI50 (IGROV-1): > 75 µM (inactive)
- GI50 (NCI-H226): > 75 µM (inactive)

Structure (SMILES): CCOC(=O)CN1C(=O)NC(C)(c2ccccc2)C1=O (stereo not drawn)
- GI50 (SK-OV-3): > 100 µM (inactive)
- GI50 (RXF 393): > 100 µM (inactive)
- GI50 (NCI/ADR-RES): > 100 µM (inactive)
- GI50 (HT-29): > 100 µM (inactive)
- GI50 (SNB-75): > 100 µM (inactive)
- GI50 (CCRF-CEM): > 100 µM (inactive)
- GI50 (Hs-578T): > 100 µM (inactive)
- GI50 (K562): > 100 µM (inactive)
- GI50 (TK-10): > 100 µM (inactive)
- GI50 (CAKI-1): > 100 µM (inactive)
- GI50 (SK-MEL-28): > 100 µM (inactive)
- GI50 (T47D): > 100 µM (inactive)
- GI50 (UACC-257): > 100 µM (inactive)
- GI50 (BT-549): > 100 µM (inactive)
- GI50 (KM12): > 100 µM (inactive)
- GI50 (SF-295): > 100 µM (inactive)
- GI50 (IGROV-1): > 100 µM (inactive)

Structure (SMILES): O=C(NNC(=S)Nc1ccccc1)c1csc(NC(=S)NC2CCCCC2)n1
- GI50 (HL-60): > 100 µM (inactive)
- GI50 (SK-OV-3): > 100 µM (inactive)
- GI50 (NCI/ADR-RES): 85.7 µM (inactive)
- GI50 (HT-29): 15.6 µM (inactive)
- GI50 (SNB-75): 47.1 µM (inactive)
- GI50 (CCRF-CEM): 54.8 µM (inactive)
- GI50 (K562): > 10 µM (inactive)
- GI50 (TK-10): > 100 µM (inactive)
- GI50 (CAKI-1): > 100 µM (inactive)
- GI50 (T47D): 36.9 µM (inactive)
- GI50 (UACC-257): 29 µM (inactive)
- GI50 (BT-549): 33 µM (inactive)
- GI50 (KM12): > 100 µM (inactive)
- GI50 (SF-295): > 100 µM (inactive)
- GI50 (IGROV-1): 29.5 µM (inactive)
- GI50 (NCI-H226): 9.59 µM (inactive)
